Values quoted from earlier work in patent US20060292214A1, “Nanoparticulate acetaminophen formulations” (Elan Pharma International Limited, priority 2005, published 2006).

SMILES: CC(=O)Nc1ccc(O)cc1 [acetaminophen, 4′-hydroxyacetanilide]
- solubility in water: practically insoluble in water
